Results on 21 molecules are retold here after patent publication US20260191858A1, “COMBINATION THERAPIES” (Kallyope, Inc., priority 2022, published 2026).

For the assay, the target named is T1, human GPR119 (hGPR119) (Homo sapiens, UniProt Q8TDV5).
T1 construct: expressed in transfected cells; host or cells: CHO-K1
T1 sequence (Q8TDV5 1-335): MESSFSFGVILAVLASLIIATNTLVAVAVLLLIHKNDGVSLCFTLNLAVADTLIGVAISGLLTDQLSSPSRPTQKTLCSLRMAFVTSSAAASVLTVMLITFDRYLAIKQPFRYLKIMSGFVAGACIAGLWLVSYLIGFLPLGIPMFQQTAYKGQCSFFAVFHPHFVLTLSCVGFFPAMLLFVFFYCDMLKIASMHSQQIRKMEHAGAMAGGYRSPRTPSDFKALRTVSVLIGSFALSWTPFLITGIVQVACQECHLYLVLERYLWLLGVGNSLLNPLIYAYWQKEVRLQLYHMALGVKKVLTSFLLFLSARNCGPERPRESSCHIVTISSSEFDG
The assay can be described thus: cAMP accumulation assay in CHO-K1 cells stably expressing hGPR119. In kind it is cell-based. To be noted: cAMP HTRF, 60 minutes. Here is the method:
CHO-K1 cells stably expressing human GPR119 (hGPR119) were prepared by transfection of a GPR119-carrying plasmid using Lipofectamine 2000 (following manufacturer instructions). A stable cell line was established using the limiting dilution method with geneticine selection. Assay-ready frozen (ARF) cells were prepared and used throughout the study.
The assay was performed in a 384-well plate format using the CAMP Gs dynamic assay kit from Cisbio. ARF cells expressing hGPR119 were thawed, washed and then resuspended in CAMP stimulation buffer at a cell density of 1.1×10^6 cells/mL. Cells were plated at a density of ~10,000 cells/well (9 μL/well). Dose response curves for the tested compounds were prepared in a cAMP stimulation buffer, containing 0.1% Tween 80 at 4 fold the final concentration. The compounds were then transferred to the cell plates using BRAVO (3 μL/well) and the plates were incubated for 60 minutes at 37° C./5% CO2. Detection buffer (10 μL, prepared as described in the CAMP Gs dynamic kit) were added to each well, and the plates were incubated at ambient temperature for 1 hr.
RT-FRET was measured using a ClarioSTAR plate reader, calculating the ratio between emissions at 665 nm and 620 nm (HTRF ratio). The HTRF ratio for positive (Max) and negative (Min) controls were used to normalize HTRF data and generate values for % activity. EC50 and Max activity values were determined using a standard 4-parameter fit.
In general terms: Changes in cAMP serve as a functional read-out for many G protein-coupled receptors.

What is called EC50 is the concentration that produces a half-maximal response.

Molecules are shown by their SMILES. Where only a bound is given, the exact number is not on record here.

As to `O=C(Cc1c(F)cc(OCCCC2CCN(c3ncc(Cl)cn3)CC2)cc1F)N1CC(CNC[C@H](O)[C@@H](O)[C@H](O)[C@H](O)CO)C1` [Compound A25, 2-[4-[3-[1-(5-chloropyrimidin-2-yl)-4-piperidyl]propoxy]-2,6-difluoro-phenyl]-1-[3-[[[(2S,3R,4R,5R)-2,3,4,5,6-pentahydroxyhexyl]amino]methyl]azetidin-1-yl]ethanone], the concentration for a half-maximal effect (EC50) was at most 100 nM.
Under `O=C(CC1CN(C(=O)Cc2c(F)cc(OCCCC3CCN(c4ncc(Cl)cn4)CC3)cc2F)C1)NCC(O)(CO)CO` [Compound A9, 2-[1-[2-[4-[3-[1-(5-chloropyrimidin-2-yl)-4-piperidyl]propoxy]-2,6-difluoro-phenyl]acetyl]azetidin-3-yl]-N-[2,3-dihydroxy-2-(hydroxymethyl)propyl]acetamide] stands at most 100 nM; under `CCCc1cnc(N2CCC(CCCOc3cc(F)c(CC(=O)N4CC(CNC[C@H](O)[C@@H](O)[C@H](O)[C@H](O)CO)C4)c(F)c3)CC2)nc1` [Compound A48, 2-(2,6-difluoro-4-(3-(1-(5-propylpyrimidin-2-yl)piperidin-4-yl)propoxy)phenyl)-1-(3-((((2S,3R,4R,5R)-2,3,4,5,6-pentahydroxyhexyl)amino)methyl)azetidin-1-yl)ethan-1-one], at most 100 nM; under `O=C(Cc1ccc(OCCCC2CCN(c3ncc(Cl)cn3)CC2)cc1F)N1CC(CNC[C@@H](O)[C@H](O)[C@H](O)CO)C1` [Compound A62, 2-[4-[3-[1-(5-chloropyrimidin-2-yl)-4-piperidyl]propoxy]-2-fluoro-phenyl]-1-[3-[[[(2R,3S,4R)-2,3,4,5-tetrahydroxypentyl]amino]methyl]azetidin-1-yl]ethanone], at most 100 nM.
With `O=C(NC(CO)(CO)CO)C1CN(C(=O)Cc2c(F)cc(OCCCC3CCN(c4ncc(Cl)cn4)CC3)cc2F)C1` [Compound A1, 1-[2-[4-[3-[1-(5-chloropyrimidin-2-yl)-4-piperidyl]propoxy]-2,6-difluoro-phenyl]acetyl]-N-[2-hydroxy-1,1-bis(hydroxymethyl)ethyl]azetidine-3-carboxamide] the figure was at most 100 nM; with `O=C(Cc1ccc(OCCCC2CCN(c3ncc(Cl)cn3)CC2)cc1F)N1CC(CN2C[C@@H](O)[C@H](O)C2)C1` (stereo in doubt) [Compound A19, 2-[4-[3-[1-(5-chloropyrimidin-2-yl)-4-piperidyl]propoxy]-2-fluoro-phenyl]-1-[3-[[rac-(3R,4R)-3,4-dihydroxypyrrolidin-1-yl]methyl]azetidin-1-yl]ethanone], at most 100 nM.
Under `COC(=O)c1cnc(N2CCC(CCCOc3ccc(CC(=O)N4CC(CNC[C@H](O)[C@@H](O)[C@H](O)[C@H](O)CO)C4)c(F)c3)CC2)nc1` [Compound A54, methyl 2-[4-[3-[3-fluoro-4-[2-oxo-2-[3-[[[(2S,3R,4R,5R)-2,3,4,5,6-pentahydroxyhexyl]amino]methyl]azetidin-1-yl]ethyl]phenoxy]propyl]-1-piperidyl]pyrimidine-5-carboxylate] stands 100 to 1000 nM.
With `O=C(Cc1ccc(OCCCC2CCN(c3ncc(Cl)cn3)CC2)cc1F)N1CC(CN2C[C@@H](O)[C@@H](O)C2)C1` [Compound A20, 2-[4-[3-[1-(5-chloropyrimidin-2-yl)-4-piperidyl]propoxy]-2-fluoro-phenyl]-1-[3-[rac-(3S,4R)-3,4-dihydroxypyrrolidin-1-yl]methyl]azetidin-1-yl]ethanone], the concentration for a half-maximal effect (EC50) was at most 100 nM.
Under `O=C(Cc1ccc(OCCCC2CCN(c3ncc(Cl)cn3)CC2)cc1F)N1CC(CCNCC(O)(CO)CO)C1` [Compound A28, 2-(4-(3-(1-(5-chloropyrimidin-2-yl)piperidin-4-yl)propoxy)-2-fluorophenyl)-1-(3-(2-((2,3-dihydroxy-2-(hydroxymethyl)propyl)amino)ethyl)azetidin-1-yl)ethan-1-one] stands 100 to 1000 nM.
With `CCc1cnc(N2CCC(CCCOc3ccc(CC(=O)N4CC(CNCC(CO)CO)C4)c(F)c3)CC2)nc1` [Compound A32, 2-(4-(3-(1-(5-ethylpyrimidin-2-yl)piperidin-4-yl)propoxy)-2-fluorophenyl)-1-(3-(((3-hydroxy-2-(hydroxymethyl)propyl)amino)methyl)azetidin-1-yl)ethan-1-one] the figure was 100 to 1000 nM; with `CCCc1cnc(N2CCC(CCCOc3ccc(CC(=O)N4CC(CNCC(O)(CO)CO)C4)c(F)c3)CC2)nc1` [Compound A41, 1-(3-(((2,3-dihydroxy-2-(hydroxymethyl)propyl)amino)methyl)azetidin-1-yl)-2-(2-fluoro-4-(3-(1-(5-propylpyrimidin-2-yl)piperidin-4-yl)propoxy)phenyl)ethan-1-one], at most 100 nM.
Under `O=C(CC1CN(C(=O)Cc2ccc(OCCCC3CCN(c4ncc(Cl)cn4)CC3)cc2F)C1)NCC(O)(CO)CO` [Compound A8, 2-[1-[2-[4-[3-[1-(5-chloropyrimidin-2-yl)-4-piperidyl]propoxy]-2-fluoro-phenyl]acetyl]azetidin-3-yl]-N-[2,3-dihydroxy-2-(hydroxymethyl)propyl]acetamide] stands 100 to 1000 nM; under `COCc1cnc(N2CCC(CCCOc3ccc(CC(=O)N4CC(CNCC[C@@H](O)C[C@@H](O)CC(=O)O)C4)c(F)c3)CC2)nc1` [Compound A52, (3R,5R)-7-[[1-[2-[2-fluoro-4-[3-[1-[5-(methoxymethyl)pyrimidin-2-yl]-4-piperidyl]propoxy]phenyl]acetyl]azetidin-3-yl]methylamino]-3,5-dihydroxy-heptanoic acid], 100 to 1000 nM.
`O=C(NC(CO)CO)C1CN(C(=O)Cc2ccc(OCCCC3CCN(c4ncc(Cl)cn4)CC3)cc2F)C1` [Compound A3, 1-[2-[4-[3-[1-(5-chloropyrimidin-2-yl)-4-piperidyl]propoxy]-2-fluoro-phenyl]acetyl]-N-[2-hydroxy-1-(hydroxymethyl)ethyl]azetidine-3-carboxamide] yielded a concentration for a half-maximal effect (EC50) of 100 to 1000 nM.
For the molecule `CCOc1cnc(N2CCC(CCCOc3cc(F)c(CC(=O)N4CC(CNC[C@H](O)[C@@H](O)[C@H](O)[C@H](O)CO)C4)c(F)c3)CC2)nc1` [Compound A58, 2-[4-[3-[1-(5-ethoxypyrimidin-2-yl)-4-piperidyl]propoxy]-2,6-difluoro-phenyl]-1-[3-[[[(2S,3R,4R,5R)-2,3,4,5,6-pentahydroxyhexyl]amino]methyl]azetidin-1-yl]ethanone], the concentration for a half-maximal effect (EC50) was at most 100 nM.
With `O=C(CC1CN(C(=O)Cc2ccc(OCCCC3CCN(c4ncc(Cl)cn4)CC3)cc2F)C1)NCCCS(=O)(=O)O` [Compound A69, 3-[[2-[1-[2-[4-[3-[1-(5-chloropyrimidin-2-yl)-4-piperidyl]propoxy]-2-fluoro-phenyl]acetyl]azetidin-3-yl]acetyl]amino]propane-1-sulfonic acid] the figure was 100 to 1000 nM; with `CCCc1cnc(N2CCC(CCCOc3cc(F)c(CC(=O)N4CC(CNCC(O)(CO)CO)C4)c(F)c3)CC2)nc1` [Compound A45, 2-(2,6-difluoro-4-(3-(1-(5-propylpyrimidin-2-yl)piperidin-4-yl)propoxy)phenyl)-1-(3-(((2,3-dihydroxy-2-(hydroxymethyl)propyl)amino)methyl)azetidin-1-yl)ethan-1-one], at most 100 nM; with `O=C(Cc1ccc(OCCCC2CCN(c3ncc(Cl)cn3)CC2)cc1F)N1CC(CNC[C@H](O)[C@@H](O)[C@H](O)CO)C1` [Compound A61, 2-[4-[3-[1-(5-chloropyrimidin-2-yl)-4-piperidyl]propoxy]-2-fluoro-phenyl]-1-[3-[[[(2S,3R,4R)-2,3,4,5-tetrahydroxypentyl]amino]methyl]azetidin-1-yl]ethanone], at most 100 nM.
With `O=C(NCCNCCC1CN(C(=O)Cc2ccc(OCCCC3CCN(c4ncc(Cl)cn4)CC3)cc2F)C1)NC(CO)(CO)CO` [Compound A30, 1-(2-((2-(1-(2-(4-(3-(1-(5-chloropyrimidin-2-yl)piperidin-4-yl)propoxy)-2-fluorophenyl)acetyl)azetidin-3-yl)ethyl)amino)ethyl)-3-(1,3-dihydroxy-2-(hydroxymethyl)propan-2-yl)urea] the figure was 100 to 1000 nM; with `CCc1cnc(N2CCC(CCCOc3ccc(CC(=O)N4CC(CNCC(O)(CO)CO)C4)c(F)c3)CC2)nc1` [Compound A33, 1-(3-(((2,3-dihydroxy-2-(hydroxymethyl)propyl)amino)methyl)azetidin-1-yl)-2-(4-(3-(1-(5-ethylpyrimidin-2-yl)piperidin-4-yl)propoxy)-2-fluorophenyl)ethan-1-one], at most 100 nM.
With `CCCc1cnc(N2CCC(CCCOc3cc(F)c(CC(=O)N4CC(CNC(CO)(CO)CO)C4)c(F)c3)CC2)nc1` [Compound A46, 2-(2,6-difluoro-4-(3-(1-(5-propylpyrimidin-2-yl)piperidin-4-yl)propoxy)phenyl)-1-(3-(((1,3-dihydroxy-2-(hydroxymethyl)propan-2-yl)amino)methyl)azetidin-1-yl)ethan-1-one] the figure was at most 100 nM.
